Paper PMC11290297 (Addiction neuroscience, 2024)

Tests used:
[1] = molecular target: T1, α2A-AR (Homo sapiens, UniProt P08913); assay: TRUPATH BRET2 G-protein activation; format: cell-based; conditions: agonist; Gi1, GoA, Gz
T1 sequence (P08913 1-465): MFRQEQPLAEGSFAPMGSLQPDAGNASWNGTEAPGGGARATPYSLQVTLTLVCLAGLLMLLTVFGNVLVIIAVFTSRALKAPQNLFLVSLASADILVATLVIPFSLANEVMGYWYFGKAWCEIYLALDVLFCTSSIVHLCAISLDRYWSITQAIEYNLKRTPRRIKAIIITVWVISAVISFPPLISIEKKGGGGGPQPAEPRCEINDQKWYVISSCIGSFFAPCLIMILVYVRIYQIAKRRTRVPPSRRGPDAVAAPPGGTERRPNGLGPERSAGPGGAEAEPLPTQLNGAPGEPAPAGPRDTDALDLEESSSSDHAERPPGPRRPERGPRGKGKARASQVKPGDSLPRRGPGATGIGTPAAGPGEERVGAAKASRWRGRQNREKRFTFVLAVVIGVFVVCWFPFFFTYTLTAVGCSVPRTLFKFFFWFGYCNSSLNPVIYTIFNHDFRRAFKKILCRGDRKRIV

[2] = molecular target: T2, kappa opioid receptor (κOR) (Homo sapiens, UniProt P41145); assay: Gi-GloSensor cAMP assay; format: cell-based
[3] = molecular target: T2, kappa opioid receptor (κOR); assay: radioligand competition binding, 3H-U69593
[4] = molecular target: T2, kappa opioid receptor (κOR); assay: Gi-GloSensor cAMP assay; format: cell-based; remark: listed apart in the source
[5] = molecular target: T1, α2A-AR; assay: radioligand competition binding; conditions: panel labelled α2-AR
[6] = molecular target: T1, α2A-AR; assay: Gi-GloSensor cAMP assay; format: cell-based; conditions: read-out: potency (pEC50) (converted); full agonist; printed pEC50 of 7.47

Row | Compound | pEC50 [1] | pEC50 ([2]; partial agonist) | Ki [3] [nM] | EC50 [4] [nM] | pKi [5] | EC50 [6] [nM] | pEC50 ([2]; agonist)
1 | Cc1cc(O)cc(C)c1NC1=NCCCS1 [4-hydroxy-xylazine] | Xylazine, its metabolites, as well as other relevant adrenergic agonists exhibited agonist activity at α2A-AR | 4-hydroxy-xylazine was less efficacious at κOR overall | – | – | – | – | –
2 | Cc1cccc(C)c1NC1=NCCCS1 [xylazine] | – | – | 470 | 1400 | Radioligand competitive binding assay confirms xylazine activity at κOR (A) and α2-AR (B) | 34 | –
3 | Cc1ccc(O)c(C)c1NC1=NCCCS1 [3-hydroxy-xylazine] | Xylazine, its metabolites, as well as other relevant adrenergic agonists exhibited agonist activity at α2A-AR | – | – | – | – | – | 3-hydroxy-xylazine was as efficacious, though less potent, as xylazine and salvinorin A
